Laboratory results reported in article PMC11714206, “Massively Parallel Screening of Toll/Interleukin‐1 Receptor (TIR)‐Derived Peptides Reveals Multiple Toll‐Like Receptors (TLRs)‐Targeting Immunomodulatory Peptides” (Advanced Science, 2024).
Several values for one entry are separate records, joined by “and”; a condition that tells them apart may be missing. Equal entries are not always repeated. Blank lines part the entries; values can stand above or below the sequence they belong to.

Molecular target: T1, MyD88^TIR (Homo sapiens, UniProt Q99836)
T1 construct: MyD88 (residues 148–296); 6xHis; made in house; host or cells: E. coli BL21 (DE3)
T1 sequence (Q99836 148-296): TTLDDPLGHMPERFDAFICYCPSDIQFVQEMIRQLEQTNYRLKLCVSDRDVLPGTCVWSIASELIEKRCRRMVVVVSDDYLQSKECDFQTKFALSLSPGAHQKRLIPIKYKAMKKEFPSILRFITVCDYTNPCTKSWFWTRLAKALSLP
Assay: T‐Surf phage library (P8 and P3) selection against MyD88^TIR, four rounds, NGS read counts
Type: binding
Settings: for P3_MyD88 Rank (after) / P3_MyD88 Rank (before): P3 library; for Population: 4th round of selection against MyD88 TIR, share of NGS reads; for P8_MyD88 Rank (after) / P8_MyD88 Rank (before): P8 library
How it was run: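 Four panning rounds on TIR domain adsorbed at 5 µg mL^−1; binding 1 h at 20–22 °C, elution with 100 mM HCl. Output: NGS read counts of round‐4 pools versus naïve library.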

[1] = selection against MyD88, rank by count after grouping
[2] = selection against MyD88, rank by count before grouping
[3] = 4R selection against MyD88, rank after grouping
[4] = 4R selection against MyD88, rank before grouping
[5] = P3_MyD88: rank by count after grouping
[6] = P3_MyD88: rank by count before grouping
[7] = P8_MyD88: rank by count after grouping
[8] = P8_MyD88: rank by count before grouping
[9] = P8_MyD88 pool: P8 T-Surf phage library
[10] = selection against MyD88 TIR, rank by count after grouping
[11] = selection against MyD88 TIR, rank by count before grouping
[12] = P3_MyD88 pool: P3 T-Surf phage library
[13] = P8_MyD88: rank by NGS read count after grouping
[14] = P8_MyD88: rank by NGS read count before grouping
[15] = selection against MyD88, rank after grouping
[16] = selection against MyD88, rank before grouping

P3_MyD88 Rank (after) [1]: 716
P3_MyD88 Rank (before) [2]: 3402
Sequence: NELVRVWSSKANSRVG

P3_MyD88 Rank (after) [3]: 615
P3_MyD88 Rank (before) [4]: 3454
Sequence: NERGHVWSSKANSLVG

Rank (after) [5]: 443
Rank (before) [6]: 3453
Sequence: NERVHVWSSKAKSLVG

Rank (after) [7]: 132
Rank (before) [8]: 145
Population [9]: 0.0116%
Sequence: NFANSSWALDELWLIL

Rank (after) [7]: 123
Rank (before) [8]: 132
Population [9]: 0.0135%
Sequence: NFGYSTWALDELVKIM

P3_MyD88 Rank (after) [10]: 243
P3_MyD88 Rank (before) [11]: 1232
Sequence: NGHESEIIKEIVDTFM

P3_MyD88 Rank (after) [1]: 702
P3_MyD88 Rank (before) [2]: 3461
Sequence: NHHLDPPRGKANKPGILG

Rank (after) [7]: 181
Rank (before) [8]: 240
Sequence: NNFSAFLFEALFENGI

Rank (after) [13]: 939
Rank (before) [14]: 3878
Sequence: NPADLDWFYERLVSLF

Rank (after) [5]: 149
Rank (before) [6]: 3467
Sequence: NQCRNALTAAANLSGC

P3_MyD88 Rank (after) [1]: 697
P3_MyD88 Rank (before) [2]: 3541
Sequence: NQGRNALTAAADLSGW

P3_MyD88 Rank (after) [10]: 233
P3_MyD88 Rank (before) [11]: 3463
Sequence: NQLRNAQTAAANLSGW

Rank (after) [5]: 396
Rank (before) [6]: 3469
Sequence: NQWLNSLTAPANPSDW

P3_MyD88 Rank (after) [15]: 577
P3_MyD88 Rank (before) [16]: 3470
Sequence: NQWRFGSKVDAWKAAL

P3_MyD88 Rank (after) [1]: 703
P3_MyD88 Rank (before) [2]: 3528
Sequence: NQWRKALTSAANLSGW

P3_MyD88 Rank (after) [1]: 700
P3_MyD88 Rank (before) [2]: 3485
Sequence: NQWRNALIAAVNLSGC

Population [12]: 0.00291%
Sequence: NQWRNALTAAANLA

P3_MyD88 Rank (after) [1]: 701
P3_MyD88 Rank (before) [2]: 3513
Sequence: NQWRNALTAAANLGGL

Population [12]: 0.00437% and 0.00378% and 0.0032%
P8_MyD88 Rank (after) [1]: 734
P8_MyD88 Rank (before) [2]: 3881
Sequence: NQWRNALTAAANLSGW

P3_MyD88 Rank (after) [3]: 675
P3_MyD88 Rank (before) [4]: 3507
Sequence: NQWRNALTAAANLSLS

Population [12]: 0.00378%
Sequence: NQWRNALTAAANLV

Population [12]: 0.00291%
Sequence: NQWRNALTAAASLSGW

Rank (after) [5]: 463
Rank (before) [6]: 3492
Sequence: NQWRNALTAAAYMSCR

Population [12]: 0.00378%
Sequence: NQWRNALTKVASL

P3_MyD88 Rank (after) [10]: 256
P3_MyD88 Rank (before) [11]: 3525
Sequence: NQWRNAQTAAANLNGW

Rank (after) [5]: 122
Rank (before) [6]: 3476
Sequence: NQWRNSRTAAANLSGW

Rank (after) [7]: 186
Rank (before) [8]: 239
Sequence: NSSWALEELVKIMEAM

Population [12]: 0.00291%
Sequence: NVHESEIIKEIVDTIV

P8_MyD88 Rank (after) [15]: 528
P8_MyD88 Rank (before) [16]: 3837
Sequence: NYAASEWALRELIQIM

P8_MyD88 Rank (after) [15]: 492
P8_MyD88 Rank (before) [16]: 3834
Sequence: NYGSNSWALNKLLEIL

P8_MyD88 Rank (after) [3]: 665
P8_MyD88 Rank (before) [4]: 3831
Sequence: NYGSSSWALEELAHIIE

P8_MyD88 Rank (after) [1]: 739
P8_MyD88 Rank (before) [2]: 3407
Sequence: PDEVKRTVGLTFSLSL

P3_MyD88 Rank (after) [15]: 547
P3_MyD88 Rank (before) [16]: 2710
Sequence: PEKDNGGEIAFINNLV

P3_MyD88 Rank (after) [1]: 731
P3_MyD88 Rank (before) [2]: 2715
Sequence: PEKDNGGENAFINTL

Rank (after) [7]: 442
Rank (before) [8]: 1195
Sequence: PGYHWLEWEYFVGIED

Rank (after) [13]: 954
Rank (before) [14]: 3417
Sequence: PQAPEWSYERLVSLIL

P8_MyD88 Rank (after) [3]: 583
P8_MyD88 Rank (before) [4]: 3423
Sequence: PQDLAWYYVRLVSLIL

P8_MyD88 Rank (after) [3]: 589
P8_MyD88 Rank (before) [4]: 3431
Sequence: PQDLDWFYDRLVSLIL

Rank (after) [13]: 1019
Rank (before) [14]: 3427
Sequence: PQDLDWFYERLESLF

Further lines, the sequence ahead of its results:

Sequence: NELVQVWSSKANSLVR
P3_MyD88 Rank (after) [1]: 693
P3_MyD88 Rank (before) [2]: 3400

Sequence: NEWVNAWTSKANRRVG
P3_MyD88 Rank (after) [3]: 602
P3_MyD88 Rank (before) [4]: 3395

Sequence: NFVEYFVYQMMPDILE
Rank (after) [7]: 153
Rank (before) [8]: 167
Population [9]: 0.00886%

Sequence: NGHENEIIKEIVETIV
P3_MyD88 Rank (after) [10]: 205
P3_MyD88 Rank (before) [11]: 3381

Sequence: NGHESEIIKEIVDTM
Rank (after) [5]: 436
Rank (before) [6]: 3365

Sequence: NGHESEIITVIVDTIV
P3_MyD88 Rank (after) [10]: 221
P3_MyD88 Rank (before) [11]: 3351

Sequence: NGHESENIKEIVDTIL
P3_MyD88 Rank (after) [10]: 212
P3_MyD88 Rank (before) [11]: 3377

Sequence: NGQSSRFKDDADLVGQ
P3_MyD88 Rank (after) [1]: 678
P3_MyD88 Rank (before) [2]: 3337

Sequence: NHDLDLPRGKAIKPEILG
P3_MyD88 Rank (after) [3]: 606
P3_MyD88 Rank (before) [4]: 3460

Sequence: NHHLDLPRGKAIKPEILG
Population [12]: 0.00524%

Sequence: NLSGWHILDGFLFDEF
Rank (after) [7]: 125
Rank (before) [8]: 134
Population [9]: 0.0131%

Sequence: NNLFNELVSKNIRTLM
P3_MyD88 Rank (after) [10]: 237
P3_MyD88 Rank (before) [11]: 3559

Sequence: NQCRNFLTAAANLSGW
Rank (after) [5]: 164
Rank (before) [6]: 3465

Sequence: NQQRFGGKVDAWKAAL
P3_MyD88 Rank (after) [10]: 281
P3_MyD88 Rank (before) [11]: 3542

Sequence: NQWHNALTAAANLSGW
Population [12]: 0.00291%

Sequence: NQWPNALTAAANLRGW
Rank (after) [5]: 132
Rank (before) [6]: 3534

Sequence: NQWRHALTAEANLSGW
Rank (after) [5]: 408
Rank (before) [6]: 3472

Sequence: NQWRNALTAAAHLTGW
P3_MyD88 Rank (after) [1]: 721
P3_MyD88 Rank (before) [2]: 3494

Sequence: NQWRNALTAAANLIGR
P3_MyD88 Rank (after) [15]: 532
P3_MyD88 Rank (before) [16]: 3499

Sequence: NQWRNALTAAANLSGC
Population [12]: 0.00291%

Sequence: NQWRNALTAAANLSGEFG
P3_MyD88 Rank (after) [3]: 604
P3_MyD88 Rank (before) [4]: 3505

Sequence: NQWRNALTATANLSGC
Rank (after) [5]: 419
Rank (before) [6]: 3517

Sequence: NQWRNALTEAAHLSGW
P3_MyD88 Rank (after) [3]: 663
P3_MyD88 Rank (before) [4]: 3520

Sequence: NQWRNELTPAANLSGW
P3_MyD88 Rank (after) [1]: 698
P3_MyD88 Rank (before) [2]: 3527

Sequence: NQWRSSPTAWASLSFA
P3_MyD88 Rank (after) [15]: 530
P3_MyD88 Rank (before) [16]: 3474

Sequence: NRWRNALTAAANLRGG
P3_MyD88 Rank (after) [15]: 510
P3_MyD88 Rank (before) [16]: 3457

Sequence: NSFREGLWRLVELSKK
P3_MyD88 Rank (after) [15]: 535
P3_MyD88 Rank (before) [16]: 3557

Sequence: NYADSSWALDELLAIM
Rank (after) [7]: 164
Rank (before) [8]: 184
Population [9]: 0.00732%

Sequence: NYASSPWALDELVKIF
P8_MyD88 Rank (after) [10]: 197
P8_MyD88 Rank (before) [11]: 295

Sequence: NYASSSWALDELLRILY
Rank (after) [7]: 155
Rank (before) [8]: 238

Sequence: NYASSSWALNELLEILK
P8_MyD88 Rank (after) [15]: 506
P8_MyD88 Rank (before) [16]: 3849

Sequence: NYASSTFALNELHYILRFI
P8_MyD88 Rank (after) [15]: 496
P8_MyD88 Rank (before) [16]: 3852

Sequence: NYATSRWALDELVRIF
P8_MyD88 Rank (after) [10]: 227
P8_MyD88 Rank (before) [11]: 419

Sequence: NYGSNSWALNELLEIL
Population [9]: 0.00848%

Sequence: NYTSSSWALDEQWNIF
P8_MyD88 Rank (after) [3]: 653
P8_MyD88 Rank (before) [4]: 3860

Sequence: PEKANGGENAFFNNIV
P3_MyD88 Rank (after) [15]: 566
P3_MyD88 Rank (before) [16]: 2705

Sequence: PEKDNGGENALSITL
P3_MyD88 Rank (after) [10]: 218
P3_MyD88 Rank (before) [11]: 1121

Sequence: PEKIMAAKMRLSITL
P3_MyD88 Rank (after) [10]: 274
P3_MyD88 Rank (before) [11]: 2702

Sequence: PENDNGGENAFINHIV
P3_MyD88 Rank (after) [3]: 635
P3_MyD88 Rank (before) [4]: 2700

Sequence: PHDLDWLYERPVRLIL
Rank (after) [13]: 980
Rank (before) [14]: 3412

Sequence: PKVGSWRQALEKAGKL
P3_MyD88 Rank (after) [15]: 560
P3_MyD88 Rank (before) [16]: 2763

Sequence: PNLRTKVLNYLMRTKT
P8_MyD88 Rank (after) [1]: 705
P8_MyD88 Rank (before) [2]: 3508

Sequence: PQDLAWLYERPLSLIL
Rank (after) [13]: 1015
Rank (before) [14]: 3424
